{
  "source": "patent US5451518A",
  "about": "“Purified human ceramide-activated protein kinase” (Sloan-Kettering Institute for Cancer Research, priority 1992, dated 1995)",
  "key": {"[1]": {"system": "sphingomyelin (HL-60 nuclei-free supernate)", "assay": "Sphingomyelin content in HL-60 cell-free system", "type": "biochemical, human", "description": "(§1) HL-60 cells were grown in RPMI 1640 medium supplemented with 10% bovine calf serum and amino acids (4). To measure sphingomyelin, cells were resuspended (1×10^6 ml^-1), labeled for 48 hours in medium with [^3 H]choline (1 μCi ml^-1) (57), in serum-free medium containing bovine insulin (5 μg ml^-1) and human transferrin (5 μg ml^-1). After 3 hours, cells were resuspended (150×10^6 ml^-1) in homogenization buffer (50 mM NaF, 5 mM EGTA, and 25 mM Hepes, pH 7.4), disrupted at 4° C. with 150 strokes of a tight-fitting Dounce homogenizer (Fisher Scientific, Pittsburgh, Pa.), and centrifuged for 5 minutes (500 g). The nuclei-free supernate was first incubated for 5 minutes at 4° C. with 30 nM human TNF-α (Genentech, South San Francisco, Calif.) or diluent ( 50 mMHepes, pH 7.4). At time zero, 15 μl of supernate (112 μg per incubation) were added to a reaction mixture containing 30 μl of 25 mM Hepes, pH 7.4, 30 μl of 750 μM ATP, and 75 μl of reaction buffer (50 mM Hepes, pH 7.4 and 20 mM MgCl2) at 22° C. The reaction was terminated with CHCl3 :CH3 OH:HCl (100:100:1, v/v/v) (3, 4, 13) and 150 μl of balanced salt solution (135 mM NaCl, 4.5 mM KCl, 1.5 mM CaCl2, 0.5 mM MgCl2, 5.6 mM glucose, and 10 mM Hepes, pH 7.2) containing 20 mM EDTA. Lipids in the organic phase extract were subjected to alkaline methanolysis to remove glycerophospholipids (4). Sphingomyelin recovery in the nuclei-free supernate was 93% of that in intact cells. A measure of 10^6 cell equivalents of supernate contained 50 μg of protein. Sphingomyelin was resolved by thin-layer chromatograhy (TLC) with CHCl3 :CH3 OH:CH3 COOH:H2 O (25:15:4:1.5 ) as solvent, identified by iodine vapor staining and quantified by liquid scintillation spectrometry (1, 8, 56). Ceramide was quantified with the diacyglycerol kinase reaction (4, 57). Values (mean) are derived from triplicate determinations from one experiment representative of three similar studies for sphingomyelin and four similar studies for ceramide.\n(§2) The binding of TNF-α to its receptor is detectable within 2 minutes and maximal by 5 to 10 minutes at 4° C. in membranes derived from HL-60 cells (41). Therefore, supernates from HL-60 cells, collected after a low-speed centrifugation to remove nuclei, were first incubated with TNF-α for 5 minutes at 4° C. to allow the formation of TNF-receptor complexes. Thereafter, reactions were initiated by warming supernates to 22° C. in a reaction mixture containing adenosine triphosphate (ATP) and Mg^2+ at pH 7.4.\nThese conditions were adopted to allow for activation of neutral sphingomyelinase (1, 42). Under these conditions, TNF-α induced a time- and concentration-dependent reduction in sphingomyelin content (FIG. 9A). the effect of TNF-α was evident at 1 minute and maximal by 7.5 minutes. Sphingomyelin concentrations decreased 27% from a control concentration of 10.4±0.5 (mean ± SEM) to 7.6±0.2 nmol per milligram (nmol mg^-1) of supernate protein (P<0.001). […] Concentrations of TNF-α of 300 pM were ineffective, with a maximal effect at 3 nMTNF-α [effective dose (ED50)≈500 pM]. Under the same conditions, ceramide increased quantitatively from 1.8±0.3 to 4.0±0.5 nmol mg^-1 (FIG. 9B). This effect was detectable at 1 minute (P<0.001) and maximal by 7.5 minutes. Thus, 2.8 nmol of sphingomyelin per milligram of supernate protein were lost for each 2.2 nmol of ceramide per milligram of supernate protein that was generated. […] Other choline-containing lipids, including phosphatidyl-choline, lysophosphatidylcholine, sphingosylphosphorylcholine(1), and 1,2-diacylglycerol were not affected by TNF-α."}, "[2]": {"system": "ceramide (HL-60 nuclei-free supernate)", "assay": "Ceramide content in HL-60 cell-free system", "type": "biochemical, human", "description": "as §1, §2\nThese conditions were adopted to allow for activation of neutral sphingomyelinase (1, 42). […] Under the same conditions, ceramide increased quantitatively from 1.8±0.3 to 4.0±0.5 nmol mg^-1 (FIG. 9B). […]"}, "[3]": {"system": "ceramide-activated protein kinase", "assay": "Ceramide-activated protein kinase activity in HL-60 cell-free system", "type": "biochemical, human", "description": "HL-60 cells were incubated in serum-free medium and homogenized (as in FIGS. 9A and 9B). […] ATP (750 μM, 4000 dpm pmol^-1), and 75 μl of reaction buffer (40). The reaction was terminated by adding 30 μl of 0.5M ATP in 90% formic acid. Phosphorylated peptide was first run on a C18 Sep-Pak cartridge, then resolved by C18 reverse-phase HPLC (Waters, Milford, Mass.), with a linear gradient of acetonitrile. The peptide eluted at 30% acetonitrile, as determined by monitoring Cerenkov radiation in 1-ml fractions. Background activity was subtracted from each point. (FIG. 10A) Kinetics of TNF-α (30 nM)-stimulated EGFR peptide phosphorylation. Values (mean) represent data from four experiments. (FIG. 10B) Concentration dependence of EGFR peptide phosphorylation at 5 minutes of stimulation with TNF-α (0.01 to 30 nM). Values (mean) represent data derived from duplicate points in two experiments. The SEM of the values in (FIG. 10A) was 18% and the mean range of values in (FIG. 10B) was 3%.\nPeptide phosphorylation was measured as in FIGS. 10A nad 10B. Control value represents peptide phosphorylation in the absence of phospholipases or TNF-α. Values (mean ± SEM) represent data derived from duplicate samples in three experiments. *P<0.001 compared to control.\nas §2\nThe effect of TNF-α on ceramide-activated protein kinase activity was assessed. […] For studies assessing the effect of TNFα in broken cell preparations, nuclei-free supernates were incubated under conditions sufficient for stimulation of neutral sphingomyelinase in a reaction mixture that also contained EGFR peptide and γ-^32 P-labeled ATP. Phosphorylated peptide was resolved by high-performance liquid chromatograph (HPLC) and quantified by Cerenkov counting (40). Kinase activity was calculated from the specific activity of [γ-^32 P] ATP and incorporation of ^32 P into EGFR peptide. Background activity was subtracted from each point. […] If the initial incubation with TNF-α at 4° C. was omitted and TNF was added directly to the reaction mixture at 22° C., the reaction was delayed. […] TNF-α enhanced kinase activity in a concentration-dependent manner at 5 minutes (FIG. 10B). […] This is similar to the ED50 of 200 pM for stimulation of ceramide-activated protein kinase by TNF-α in intact cells (40). TNF-α enhanced kinase activity in a total of 20 separate studies.\nControl activity reflects several TNF-α-independent protein kinases that are known to phosphorylate EGFR peptide on Thr^669."}, "[4]": {"system": "phosphatidyl-choline, lysophosphatidylcholine, sphingosylphosphorylcholine, 1,2-diacylglycerol", "assay": "Other choline-containing lipids and diacylglycerol in HL-60 cell-free system", "type": "biochemical, human", "settings": "TNF-α"}, "[5]": {"system": "ceramide-activated protein kinase"}, "[6]": {"system": "ceramide-activated protein kinase", "settings": "cited from earlier work"}, "[7]": {"system": "HL-60 cells", "settings": "cited from earlier work"}, "[8]": {"system": "HL-60 cells", "settings": "cited from earlier work", "remark": "listed apart in the source"}},
  "note": "Entries after “also recorded” stand apart in the source; their conditions may differ. Read-outs that look alike come from different tables or passages of the source.",
  "data": [
    {"substance": "TNF-α", "values": [
      {"measurement": "concentration for maximal effect on sphingomyelin", "setting": "[1]; TNF-α", "result": 3, "unit": "nM"},
      {"measurement": "effective dose (ED50), sphingomyelin reduction", "setting": "[1]; TNF-α", "result": "≈ 500 pM"},
      {"measurement": "sphingomyelin lost", "setting": "[1]; TNF-α", "result": "2.8 nmol per milligram of supernat"},
      {"measurement": "time at which sphingomyelin reduction was evident", "setting": "[1]; TNF-α", "result": 1, "unit": "min"},
      {"measurement": "time to maximal sphingomyelin reduction", "setting": "[1]; TNF-α", "result": "≤ 7.5", "unit": "min"},
      {"measurement": "decrease in sphingomyelin concentration", "setting": "[1]; TNF-α, P<0.001", "result": 27, "unit": "%"},
      {"measurement": "sphingomyelin concentration after TNF-α", "setting": "[1]; mean ± SEM, control 10.4±0.5, P<0.001", "result": "7.6±0.2 nmol per milligram (nmol mg^-1) of supernate protein"},
      {"measurement": "ceramide generated", "setting": "[2]; TNF-α", "result": "2.2 nmol per milligram of supernat"},
      {"measurement": "time to maximal ceramide increase", "setting": "[2]; TNF-α", "result": "≤ 7.5", "unit": "min"},
      {"measurement": "time at which ceramide increase was detectable", "setting": "[2]; TNF-α, P<0.001", "result": 1, "unit": "min"},
      {"measurement": "ceramide concentration after TNF-α", "setting": "[2]; from 1.8±0.3", "result": "4.0 ± 0.5", "unit": "nmol/mg"},
      {"measurement": "delay before enhancement of kinase activity", "setting": "[3]; TNF added directly at 22° C., no 4° C. incubation", "result": 2, "unit": "min"},
      {"measurement": "duration of stimulation of kinase activity", "setting": "[3]; TNF-α 30 nM", "result": "at least 10 minutes"},
      {"measurement": "time at which stimulation of kinase activity was evident", "setting": "[3]; TNF-α 30 nM", "result": "evident by i minute"},
      {"measurement": "effect on kinase activity (in words)", "setting": "[3]; TNF-α 30 nM, GTP, GTP-γ-S 0.25 to 200 μM, SMase 1×10^-3 U ml^-1, 5 minutes, phospholipases 40- to 400-fold higher", "result": "enhanced kinase activity (P<0.001)"},
      {"measurement": "concentration for maximal effect", "setting": "[3]; TNF-α, 5 minutes", "result": 3, "unit": "nM"},
      {"measurement": "effective concentration", "setting": "[3]; TNF-α, 5 minutes", "result": 10, "unit": "pM"},
      {"measurement": "ED50 for kinase activity", "setting": "[3]; TNF-α, 5 minutes, cell-free", "result": "≈ 300 pM"},
      {"measurement": "effect on phosphatidyl-choline, lysophosphatidylcholine, sphingosylphosphorylcholine and 1,2-diacylglycerol", "setting": "[4]", "result": "not affected"},
      {"measurement": "increase in kinase activity", "setting": "[5]; TNF-α 3 pM, 60 minutes", "result": "1.1 -fold of control"},
      {"measurement": "increase in kinase activity", "setting": "[5]; TNF-α 30 nM, 5 minutes", "result": "1.5 -fold of control"},
      {"measurement": "maximal effect on kinase activity", "setting": "[5]; TNF-α 30 nM, 60 minutes", "result": "1.8 -fold of control"},
      {"measurement": "increase in kinase activity", "setting": "[5]; TNF-α 30 nM, 2 hours", "result": "2.2 -fold of control"},
      {"measurement": "increase in kinase activity", "setting": "[5]; TNF-α 30 nM, 2 hours, listed as TNF", "result": "2 -fold of control"},
      {"measurement": "ED50 for kinase activity", "setting": "[5]; TNF-α, 60 minutes, intact cells", "result": "≈ 200 pM"},
      {"measurement": "effect on kinase activity (in words)", "setting": "[6]; intact HL-60 cells", "result": "rapidly increased; also recorded: similarly enhanced kinase activity in intact cells"},
      {"measurement": "ED50 for stimulation of ceramide-activated protein kinase", "setting": "[6]; intact cells", "result": 0.2, "unit": "nM"},
      {"measurement": "maximally effective concentration for generation of ceramide", "setting": "[7]; also for monocyte differentiation", "result": 30, "unit": "nM"},
      {"measurement": "sphingomyelin degradation to ceramide / ceramide level (in words)", "setting": "[7]", "result": "increase cellular levels of ceramide within minutes; also recorded: activates a neutral sphingomyelinase to generate ceramide"},
      {"measurement": "sphingomyelin degradation to ceramide / ceramide level (in words)", "setting": "[7]; listed as Tumor necrosis factor (TNF) α", "result": "stimulate sphingomyelin degradation to ceramide"},
      {"measurement": "monocytic differentiation", "setting": "[8]", "result": "induce monocytic differentiation"}
    ]}
  ]
}
